The values below come from patent US11897898B2, “Pyridine macrocycle compounds as ASK1 inhibiting agents” (BIOGEN MA INC., priority 2018, dated 2024).

The target in one assay is T1, ASK1/MAP3K5 (Homo sapiens, UniProt Q99683).
T1 construct: purchased Reaction Biology Corp. (Malvern, Pa.)
T1 sequence (Q99683 1-1374): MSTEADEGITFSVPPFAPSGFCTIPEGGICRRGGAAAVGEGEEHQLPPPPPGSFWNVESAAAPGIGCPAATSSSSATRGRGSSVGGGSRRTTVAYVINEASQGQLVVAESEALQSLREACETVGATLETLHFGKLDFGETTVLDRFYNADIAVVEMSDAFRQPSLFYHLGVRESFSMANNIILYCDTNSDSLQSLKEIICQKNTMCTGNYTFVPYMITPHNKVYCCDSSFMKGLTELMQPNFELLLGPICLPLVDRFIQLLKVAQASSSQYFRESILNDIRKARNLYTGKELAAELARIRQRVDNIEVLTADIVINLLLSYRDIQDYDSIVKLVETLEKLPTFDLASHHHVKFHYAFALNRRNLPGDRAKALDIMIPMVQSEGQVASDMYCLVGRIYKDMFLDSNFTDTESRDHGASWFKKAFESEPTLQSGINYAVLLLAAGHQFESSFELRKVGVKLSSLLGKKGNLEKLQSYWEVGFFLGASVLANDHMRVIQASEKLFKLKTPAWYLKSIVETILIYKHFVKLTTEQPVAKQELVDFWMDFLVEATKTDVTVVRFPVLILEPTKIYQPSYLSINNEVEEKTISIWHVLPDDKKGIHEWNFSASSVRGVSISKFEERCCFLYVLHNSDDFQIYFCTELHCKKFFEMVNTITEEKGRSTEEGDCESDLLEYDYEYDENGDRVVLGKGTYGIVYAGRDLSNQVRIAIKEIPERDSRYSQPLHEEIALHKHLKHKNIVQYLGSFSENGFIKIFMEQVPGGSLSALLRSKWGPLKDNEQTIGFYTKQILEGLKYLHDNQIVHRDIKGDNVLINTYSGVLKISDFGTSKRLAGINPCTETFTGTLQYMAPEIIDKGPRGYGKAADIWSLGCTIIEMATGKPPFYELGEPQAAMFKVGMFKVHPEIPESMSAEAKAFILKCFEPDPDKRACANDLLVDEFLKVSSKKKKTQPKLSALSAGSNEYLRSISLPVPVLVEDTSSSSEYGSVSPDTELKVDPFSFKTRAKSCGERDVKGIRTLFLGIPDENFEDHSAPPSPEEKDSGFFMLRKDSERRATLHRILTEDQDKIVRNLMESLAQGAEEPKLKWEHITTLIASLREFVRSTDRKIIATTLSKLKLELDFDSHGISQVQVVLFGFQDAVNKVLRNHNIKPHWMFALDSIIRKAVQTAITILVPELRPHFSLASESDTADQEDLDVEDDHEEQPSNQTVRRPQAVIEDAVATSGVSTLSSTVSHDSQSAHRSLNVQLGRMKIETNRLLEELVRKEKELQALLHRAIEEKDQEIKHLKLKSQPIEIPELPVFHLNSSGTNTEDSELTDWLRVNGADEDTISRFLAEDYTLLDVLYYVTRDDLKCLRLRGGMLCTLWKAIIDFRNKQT
In words: ASK1 enzyme assay (ASK1/MAP3K5 assay by Reaction Biology Corp., 33P-ATP filter-binding). Type of assay: biochemical. The following applies: 20 μM myelin basic protein and 10 μM ATP. How it is done: The protein kinase inhibitory activity of the compounds described herein were tested using the ASK1/MAP3K5 assay by Reaction Biology Corp. (Malvern, Pa.). The assay procedure follows (and is also available on the Reaction Biology Corp. website). • Base Reaction Buffer: 20 mM Hepes (pH 7.5), 10 mM MgCl2, 1 mM EGTA, • 0.02% Brij35, 0.02 mg/mL BSA, 0.1 mM Na3VO4, 2 mM DTT, 1% DMSO; • Substrate: 20 μM of myelin basic protein (MBP) and 10 μM ATP; • Protein kinase: ASK1/MAP3K5. • Reaction Procedure: • 1. Prepare indicated substrate in freshly prepared Base Reaction Buffer. • 2. Deliver any required cofactors to the substrate solution. • 3. Deliver indicated kinase into the substrate solution and gently mix. • 4. Deliver compounds in DMSO into the kinase reaction mixture by Acoustic; technology (Echo550; nanoliter range), incubate for 20 minutes at room temperature. • 5. Deliver ^33P-ATP (specific activity 10 μCi/μL) into the reaction mixture to initiate the reaction. • 6. Incubate kinase reaction for 2 hours at room temperature. • 7. Reactions are spotted onto P81 ion exchange paper. • 8. Detect kinase activity by filter-binding method.

Assay [1] addresses T2, ASK1 T838 auto phosphorylation (Homo sapiens, UniProt Q99683).
T2 construct: ASK1-V5 tagged full length plasmid; expressed in transfected cells; host or cells: HEK-293T
T2 sequence (Q99683 1-1374): T1 sequence (Q99683 1-1374)
In words: ASK1 (AUTO PHOS T838) assay in HEK-293T cells, MSD format. Type of assay: cell-based. Conditions: HEK-293T cells transfected with ASK1-V5, 1 hr compound incubation. How it is done: ASK1 T838 auto phosphorylation was measured in HEK-293T cells using MSD assay format. HEK 293T cells were seeded in 15 cm plates at a density of 18 million cells and 20 mL DMEM with 10% FBS, Pen/Strep media. The plates were incubated at 37° C. overnight. Media on plates was changed to OPTI-MEM, serum free media and cells were transfected with 9 μg of ASK1-V5 tagged full length plasmid using Lipofectamine 2000 (Invitrogen) and the plates were incubated at 37° C. overnight. Cells were trypsinized, counted on Nexcellometer and plated into 96 well tissue culture plates with 100,000 cells/well and 200 μL media. Cells were incubated for 4 hr at 37° C. then ASK1 compounds were added using a HP 300e. Compounds were tested at 20 μM with 3 fold, 10 point dilution points then incubated for 1 hr at 37° C. A lysis buffer (Cell Signaling) was prepared with protease and phosphatase inhibitor and maintained at 4° C. until use. Media from cells was discarded and 120 μL of cold lysis buffer was added to the cells, the plate was shaken 4° C. for 1 hr. Lysate was mixed using Apricot liquid handler; aspirating up and down 16 times at high speed using 50 μL volume. 50 μL of cell lysates were transferred to a pre-coated MSD plates containing mouse anti-V5 antibody (1:500 dilution) and washed 3× with MSD wash buffer (TBST) and blocked with a 3% BSA solution. Plates were then incubated on a plate shaker overnight at 4° C. Plates were washed 3× with MSD wash buffer and 50 μL of rabbit anti-pASK1 T838 antibody was added to the wells and incubated for 2 hr at room temperature on a plate shaker. Plates were then washed and 50 μL of goat anti-rabbit sulfa-tag (1:500 dilution) was added to wells, and incubated for 1 hr at room temperature on a plate shaker. Plates were washed 3× and 150 μL of 2×MSD Read buffer was added to wells. Plates were immediately read on a MSD Instrument Reader where chemoluminecense signal was measured. Data was analyzed using Graph Pad or Genedata, the data was normalized and plotted, % activity versus log of compound concentration. The IC50 values were obtained from a 4 parameter fit.

`C[C@H]1CCCOc2ncc(N3CC(F)(F)C3)cc2C(=O)Nc2cccc(n2)-c2nncn21` [Compound 9, (S)-5^5-(3,3-Difluoroazetidin-1-yl)-10-methyl-1^4H-6-oxa-3-aza-2(2,6),5(3,2)-dipyridina-1(3,4)-triazolacyclodecaphan-4-one]: the IC50 (on ASK1/MAP3K5 (class symbols); in assay [1] (class symbols)) was no more than 100 nM in each case.
As for `C[C@@H]1CCCOc2ncc(C(F)(F)F)cc2C(=O)Nc2cccc(n2)-c2nncn21` (single isomer, unassigned) [Compound 42], the IC50 (on ASK1/MAP3K5; in assay [1]) was no less than 10000 nM each time.
For `C[C@H]1CCCOc2ncc(-c3cnn(CCN(C)C)c3)cc2C(=O)Nc2cccc(n2)-c2nncn21` [Compound 25, (S)-5^5-(1-(2-(Dimethylamino)ethyl)-1H-pyrazol-4-yl)-10-methyl-1^4H-6-oxa-3-aza-2(2,6),5(3,2)-dipyridina-1(3,4)-triazolacyclodecaphan-4-one], the IC50 (at ASK1/MAP3K5 (class symbols); in assay [1] (class symbols)) was no more than 100 nM throughout.
As for `C[C@H]1CCCOc2ncc(C3=CCN(C)CC3)cc2C(=O)Nc2cccc(n2)-c2nncn21` [Compound 15, (S)-10-Methyl-5^5-(1-methyl-1,2,3,6-tetrahydropyridin-4-yl)-1^4H-6-oxa-3-aza-2(2,6),5(3,2)-dipyridina-1(3,4)-triazolacyclodecaphan-4-one], the IC50 (at ASK1/MAP3K5 (class symbols); in assay [1] (class symbols)) was no more than 100 nM throughout.
For `Cc1cncn1-c1cnc2c(c1)C(=O)Nc1cccc(n1)-c1nncn1[C@@H](C)CCCO2` (single isomer, unassigned) [Compound 31], the IC50 on ASK1/MAP3K5 (class symbols) is no more than 100 nM; in assay [1] (class symbols) it was 100 to 1000 nM.
For the molecule `C[C@H]1CCCOc2ncc(N3CCOCC3)cc2C(=O)Nc2cccc(n2)-c2nncn21` [Compound 7, (S)-10-Methyl-5^5-morpholino-1^4H-6-oxa-3-aza-2(2,6),5(3,2)-dipyridina-1(3,4)-triazolacyclodecaphan-4-one], the half-inhibitory concentration (IC50) (at ASK1/MAP3K5 (class symbols); in assay [1] (class symbols)) was no more than 100 nM throughout.
Take `C[C@@H]1CN(c2cnc3c(c2)C(=O)Nc2cccc(n2)-c2nncn2[C@@H](C)CCCO3)C[C@@H](C)N1` [Compound 14, (S)-5^5-((3R,5R)-3,5-Dimethylpiperazin-1-yl)-10-methyl-1^4H-6-oxa-3-aza-2(2,6),5(3,2)-dipyridina-1(3,4)-triazolacyclodecaphan-4-one]: the IC50 at ASK1/MAP3K5 (class symbols) is no more than 100 nM; in assay [1] (class symbols) it was 100 to 1000 nM.
Turning to `C[C@@H]1CCCOc2ncc(-c3cnn(CCN(C)C)c3)cc2C(=O)Nc2cccc(n2)-c2nncn21` [Compound 24, (R)-5^5-(1-(2-(Dimethylamino)ethyl)-1H-pyrazol-4-yl)-10-methyl-1^4H-6-oxa-3-aza-2(2,6),5(3,2)-dipyridina-1(3,4)-triazolacyclodecaphan-4-one], the IC50 (at ASK1/MAP3K5 (class symbols); in assay [1] (class symbols)) was 1000 to 10000 nM throughout.
As for `C[C@H]1CCCOc2ncc(OCCN(C)C)cc2C(=O)Nc2cccc(n2)-c2nncn21` [Compound 44, (S)-5^5-(2-(Dimethylamino)ethoxy)-10-methyl-1^4H-6-oxa-3-aza-2(2,6),5(3,2)-dipyridina-1(3,4)-triazolacyclodecaphan-4-one], the IC50 (at ASK1/MAP3K5 (class symbols); in assay [1] (class symbols)) was no more than 100 nM each time.
For the molecule `COc1ccc(-c2cnc3c(c2)C(=O)Nc2cccc(n2)-c2nncn2[C@@H](C)CCCO3)cn1` [Compound 20, (S)-5^5-(6-Methoxypyridin-3-yl)-10-methyl-1^4H-6-oxa-3-aza-2(2,6),5(3,2)-dipyridina-1(3,4)-triazolacyclodecaphan-4-one], the IC50 (on ASK1/MAP3K5 (class symbols); in assay [1] (class symbols)) was no more than 100 nM in each case.
With `C[C@@H]1CCCOc2ncccc2C(=O)Nc2cccc(n2)-c2nncn21` (single isomer, unassigned) [Compound 5], the IC50 on ASK1/MAP3K5 (class symbols) was 1000 to 10000 nM; in assay [1], no less than 10000 nM.
For `C[C@@H]1CN(c2cnc3c(c2)C(=O)Nc2cccc(n2)-c2nncn2[C@@H](C)CCCO3)C[C@H](C)N1` [Compound 11, (S)-5^5-((3S,5R)-3,5-Dimethylpiperazin-1-yl)-10-methyl-1^4H-6-oxa-3-aza-2(2,6),5(3,2)-dipyridina-1(3,4)-triazolacyclodecaphan-4-one], the IC50 (at ASK1/MAP3K5 (class symbols); in assay [1] (class symbols)) was no more than 100 nM in each case.
For `C[C@H]1CN(c2cnc3c(c2)C(=O)Nc2cccc(n2)-c2nncn2[C@@H](C)CCCO3)CCN1C` (single isomer, unassigned) [Compound 13], the IC50 at ASK1/MAP3K5 (class symbols) is no more than 100 nM; in assay [1] (class symbols) it was 100 to 1000 nM.
Turning to `C[C@@H]1CCCOc2ncc(C#N)cc2C(=O)Nc2cccc(n2)-c2nncn21` [Compound 37, (R)-10-Methyl-4-oxo-1^4H-6-oxa-3-aza-2(2,6),5(3,2)-dipyridina-1(3,4)-triazolacyclodecaphane-5^5-carbonitrile], the IC50 on ASK1/MAP3K5 (class symbols) is 1000 to 10000 nM; in assay [1] it was no less than 10000 nM.
Regarding `C[C@H]1CCCOc2ncc(N3CC4CC(C3)O4)cc2C(=O)Nc2cccc(n2)-c2nncn21` [Compound 8, (10S)-5^5-(6-Oxa-3-azabicyclo[3.1.1]heptan-3-yl)-10-methyl-1^4H-6-oxa-3-aza-2(2,6),5(3,2)-dipyridina-1(3,4)-triazolacyclodecaphan-4-one], the IC50 (at ASK1/MAP3K5 (class symbols); in assay [1] (class symbols)) was no more than 100 nM throughout.
In the case of `C[C@H]1CCCOc2ncc(-c3cncn3C)cc2C(=O)Nc2cccc(n2)-c2nncn21` [Compound 28, (S)-10-Methyl-5^5-(1-methyl-1H-imidazol-5-yl)-1^4H-6-oxa-3-aza-2(2,6),5(3,2)-dipyridina-1(3,4)-triazolacyclodecaphan-4-one], the IC50 (at ASK1/MAP3K5 (class symbols); in assay [1] (class symbols)) was no more than 100 nM throughout.

For orientation: IC50 means the concentration that gives 50% inhibition. A higher IC50 goes with weaker potency in that assay.
